Measured values reported in ChEMBL document CHEMBL2034963, “Synthesis and pharmacological assessment of diversely substituted pyrazolo[3,4-b]quinoline, and benzo[b]pyrazolo[4,3-g][1,8]naphthyridine derivatives” (Eur J Med Chem, 2011).
pIC50, pKi: −log10 of the molar value. The source made the active and inactive calls. No cut-off for these calls is given here.

Legend:
Acetylcholinesterase [1] = target: T1, Acetylcholinesterase (Electrophorus electricus, UniProt O42275)
Description: Inhibition of electric eel AChE preincubated for 10 mins measured after 15 mins by Ellman's method

Cholinesterase = Cholinesterase (Equus caballus, UniProt P81908)
Chain of Cholinesterase (P81908 whole entry): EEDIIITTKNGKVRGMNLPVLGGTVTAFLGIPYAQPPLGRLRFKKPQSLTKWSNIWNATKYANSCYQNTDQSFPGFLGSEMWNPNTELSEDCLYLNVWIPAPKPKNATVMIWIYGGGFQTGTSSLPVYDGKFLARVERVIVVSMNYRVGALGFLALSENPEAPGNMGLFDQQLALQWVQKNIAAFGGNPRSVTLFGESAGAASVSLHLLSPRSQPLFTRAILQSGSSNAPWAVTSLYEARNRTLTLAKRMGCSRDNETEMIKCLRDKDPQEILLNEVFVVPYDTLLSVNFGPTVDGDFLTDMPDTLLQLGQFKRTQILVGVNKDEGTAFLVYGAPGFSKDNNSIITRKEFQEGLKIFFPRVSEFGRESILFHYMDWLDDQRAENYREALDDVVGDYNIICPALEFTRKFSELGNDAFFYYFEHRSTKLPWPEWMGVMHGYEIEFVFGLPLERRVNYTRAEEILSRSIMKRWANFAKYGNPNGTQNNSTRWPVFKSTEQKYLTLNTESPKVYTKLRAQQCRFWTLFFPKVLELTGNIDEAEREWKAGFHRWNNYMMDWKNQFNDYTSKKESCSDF
Description: Inhibition of Equus caballus BChE preincubated for 10 mins measured after 15 mins by Ellman's method

SH-SY5Y [2] = experiment: Neuroprotective activity in okadaic acid-induced cell death in human SH-SY5Y cells at 1 uM after 24 hrs by MTT method; format: functional, cell-based
Acetylcholinesterase [3] = target: T1, Acetylcholinesterase; experiment: Mixed type inhibition of electric eel AChE using acetylthiocholine as substrate by Lineweaver-Burk plot analysis
SH-SY5Y [4] = experiment: Neuroprotective activity in rotenone/oligomycin-induced cell death in human SH-SY5Y cells assessed as LDH release at 1 uM pretreated for 1 hr before rotenone/oligomycin challenge measured after 24 hrs by spectrophotometric method (reference value: 13 %); format: functional
SH-SY5Y [5] = experiment: Neuroprotective activity in rotenone/oligomycin-induced cell death in human SH-SY5Y cells assessed as LDH release at 10 nM pretreated for 1 hr before rotenone/oligomycin challenge measured after 24 hrs by spectrophotometric method (reference value: 13 %); format: functional

T1 sequence (O42275 whole entry): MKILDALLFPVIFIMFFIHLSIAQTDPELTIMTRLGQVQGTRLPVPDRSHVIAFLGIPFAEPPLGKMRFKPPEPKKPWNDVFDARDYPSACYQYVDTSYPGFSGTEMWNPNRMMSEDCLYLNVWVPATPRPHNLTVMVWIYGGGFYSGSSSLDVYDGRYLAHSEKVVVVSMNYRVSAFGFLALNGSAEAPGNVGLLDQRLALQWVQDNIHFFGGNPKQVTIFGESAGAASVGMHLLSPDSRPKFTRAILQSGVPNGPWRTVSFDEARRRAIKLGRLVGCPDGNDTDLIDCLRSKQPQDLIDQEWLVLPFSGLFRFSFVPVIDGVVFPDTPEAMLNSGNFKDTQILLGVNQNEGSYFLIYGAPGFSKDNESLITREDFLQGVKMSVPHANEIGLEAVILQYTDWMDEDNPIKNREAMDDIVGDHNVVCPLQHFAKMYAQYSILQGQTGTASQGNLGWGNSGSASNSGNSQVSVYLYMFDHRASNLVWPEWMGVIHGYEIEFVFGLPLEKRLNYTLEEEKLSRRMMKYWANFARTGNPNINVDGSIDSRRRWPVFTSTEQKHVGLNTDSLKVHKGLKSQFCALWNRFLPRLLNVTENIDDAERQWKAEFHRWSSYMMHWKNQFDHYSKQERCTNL

| SMILES | pIC50 (Acetylcholinesterase [1]) | pIC50 (Cholinesterase) | Activity (SH-SY5Y [2]) | pKi (Acetylcholinesterase [3]) | Activity (SH-SY5Y [4]) [%] | Activity (SH-SY5Y [5]) [%] |
| --- | --- | --- | --- | --- | --- | --- |
| Cn1nc2nc3c(c(N)c2c1C#N)CCCC3 | 6.24 | 4.00 | – | – | – | – |
| CC(=O)Nc1nn(C)c2nc3nc4c(c(N)c3c(-c3ccccc3)c12)CCCC4 | 6.64 | 5.05 | – | – | – | – |
| CC(=O)Nc1nn(C)c2nc3nc4c(c(N)c3cc12)CCCC4 | 7.16 | 5.20 | inactive | 6.81 | 48 | – |
| Cn1nc2nc3c(c(N)c2c1C(N)=O)CCCC3 | 6.22 | 5.27 | – | – | – | – |
| Cn1nc(C#N)c2c(N)c3c(nc21)CCCC3 | 5.77 | 5.20 | – | – | – | – |
| Cn1nc(C(N)=O)c2c(NCCCCCCOc3ccccc3)c3c(nc21)CCCC3 | 5.03 | < 4.00 | – | – | – | – |
| COc1ccc2[nH]cc(CCNC(C)=O)c2c1 [MELATONIN] | – | – | – | – | – | 48 |
